Experimental data: patent US10030044B2, “Nucleotides for the treatment of liver cancer” (IDENIX PHARMACEUTICALS LLC, priority 2013, dated 2018)

Columns and labels:
HepG2 cell line = test: In Vitro Inhibition of Hep G2 Hepatocytes (CellTiter-Glo, 72 hr); assay type: cell-based; settings: HepG2 cells, 72 hr exposure
Description: Cells were grown in RPMI-1640 supplemented with L-glutamine and 10% FBS: HepG2.
96 well plates of HepG2 cell line were seeded with the optimized number of cells per well in a total volume of 50 μL per well. The plates were left overnight. Some wells were seeded with 100 μL of media for media control. The following day, cells were exposed to test compounds. At same time as drug exposure, a CTG assay was conducted on 1st plate for the 0 hr count.
2× stocks of each compound in media were prepared for dosing, as follows:
50 μL of above 2× stocks were added to cells and medium already on plate to give final concentrations. 50 μL media were added to cell control wells, and 50 μL of mix added to vehicle control wells. 10 μM Dox was added to appropriate wells. Cells exposed to test compounds were incubated at 37° C. for 72 hr followed by a CTG assay.
At the end of the 72 hr exposure period, plates were removed for a CellTiter-Glo (CTG) assay from a 37° C., 5% CO2 incubator and placed on the bench at room temperature for 30 mins. 100 μL of CellTiter-Glo reagent was added and mixed for 2 mins, followed by a further 10 min incubation at room temperature. Luminescence was recorded using Synergy 4.0.

[1] = Mouse liver pharmacokinetics (liver triphosphate levels) following a single oral dose; assay type: in vivo, mice; settings: for Fold change Mouse Liver GemC TP compared to Gemcitabine / Fold change Mouse Liver GemC TP produced compared to GemU TP: single oral dose, calculated from Table 2 data
Description: A single oral dose of test compound in PEG 200 (dose volume 5 mL/kg) was administered to C57BL/6 male mice. Five untreated animals were used for the collection of control plasma and liver. Terminal plasma and liver samples were collected from three animals per time point at 1, 2, 4, 12, and 24 hours post dose. Liver specimens were collected from all animals immediately after the incision. Freezing forceps stored in liquid nitrogen were used to freeze the liver before excision. […]
Liver samples were analyzed for corresponding active triphosphate species by LC-MS/MS. Triphosphate levels were assayed by homogenizing (on ice) a known weight of mouse liver with 4× volume of 0.95 M trichloroacetic acid (TCA). Internal standard solution was added to the homogenate followed by neutralization with 20% ammonium hydroxide solution and addition of 500 μL 1% formic acid. The tissue samples were extracted by weak anion exchange solid phase extraction (SPE). Post extraction, the eluates were evaporated under nitrogen, followed by reconstitution before injection onto the LC-MS/MS system. The samples were chromatographed on a Luna NH2 column using a gradient system of ammonium acetate (1 mM to 20 mM and pH 8.0 to pH 10.0) in water and acetonitrile (70:30). The analyte was detected and quantified by tandem mass spectrometry in positive ion mode on an API4000 equipped with a Turbo Ionspray® interface. The calibration range was 10 to 10000 pmol/mL in mouse liver homogenate (50 to 50000 pmol/g of mouse liver).

Row | SMILES | IC50 (HepG2 cell line; Homo sapiens) [µM] | Fold change Mouse Liver GemC TP produced compared to GemU TP [1] | Fold change Mouse Liver GemC TP compared to Gemcitabine [1] | further results
1 | Nc1ccn([C@@H]2O[C@H](CO)[C@@H](O)C2(F)F)c(=O)n1 [drawing 125] | ≤ 0.01 |  |  | 
2 | C[C@H](NP(=O)(OC[C@H]1O[C@@H](n2ccc(N)nc2=O)C(F)(F)[C@@H]1O)Oc1ccccc1)C(=O)OCc1ccccc1 (single isomer, unassigned) [drawing 127] |  |  |  | Fold change Mouse Liver GemC TP compared to Gemcitabine ([1]; listed as drawing 130): ++++ (25 < ++++ ≤ 50); Fold change Mouse Liver GemC TP produced compared to GemU TP ([1]; listed as drawing 130): +++ (10 < +++ ≤ 25)
3 | C[C@H](NP(=O)(OC[C@H]1O[C@@H](n2ccc(N)nc2=O)C(F)(F)[C@@H]1O)Oc1ccccc1)C(=O)OCc1ccccc1 (single isomer, unassigned) [drawing 124] | 1 to 10 |  |  | Fold change Mouse Liver GemC TP compared to Gemcitabine ([1]; listed as drawing 131): + (+ ≤ 5); Fold change Mouse Liver GemC TP produced compared to GemU TP ([1]; listed as drawing 131): + (+ ≤ 5)
4 | Nc1ccn([C@@H]2O[C@H](CO)[C@@H](O)C2(F)F)c(=O)n1 [Gemcitabine, gemcitabine] |  | + (+ ≤ 5) |  | 
5 | CC(C)OC(=O)[C@@H](C)NP(=O)(OC[C@H]1O[C@@H](n2ccc(N)nc2=O)C(F)(F)[C@@H]1O)Oc1ccccc1 (single isomer, unassigned) [Compound 4, Diastereomer 1] | > 10 | ++++ (25 < ++++ ≤ 50) | ++++++ (100 < ++++++) | Clast ([1]; analyte GemU TP in mouse liver, single oral dose 182 mg/kg in PEG 200, 182 mg/kg): +++ (5,000 < +++ ≤ 15,000)
6 | CC(C)OC(=O)[C@@H](C)NP(=O)(OC[C@H]1O[C@@H](n2ccc(N)nc2=O)C(F)(F)[C@@H]1O)Oc1ccccc1 (single isomer, unassigned) [Compound 4, Diastereomer 2] |  | +++ (10 < +++ ≤ 25) | ++ (5 < ++ ≤ 10) | IC50 (HepG2 cell line): > 10 µM
